# Laboratory results from patent publication US20090298752A1, “APLIDINE TREATMENT OF CANCERS” (PHARMA MAR, S.A., priority 1999, published 2009).
# Entries after “also recorded” stand apart in the source; their conditions may differ.
# Key:
# VEGF mRNA = VEGF mRNA levels in IGROV-1; type: cell-based, human
# FLT-1 (VEGF-R1) = assay: cDNA expression array, PCR, Western in MOLT-4 cells; type: cell-based, human; conditions: for quantitative change in FLT-1 expression: MOLT-4, 1 h treatment
# Method: (§1) The early changes in gene expression induced by aplidine in MOLT-4 cells were evaluated by using cDNA expression arrays (Atlas Human Cancer, Clontech). MOLT-4 cells were treated for 1 hour with concentrations of aplidine which inhibit the growth by 50% and total RNA was isolated at 0, 1, 6 and 24 hours after drug wash out. Filters were hybridised with equal amount of 32P labelled cDNA. Analysis of the results was carried out using ATLAS IMAGE 1.0 software. Changes in gene expression greater than 2 fold were taken as significant changes in RNA expression and subsequently confirmed by PCR.
# as §1, with “In the present study we have evaluated the early” for “The early”, “cells” for “cells were evaluated”, “of aplidien” for “of aplidine”, “isolated t” for “isolated at”, “equal amounts” for “equal amount”, “PCR. […] Whether the down-regulation of flt-1 is involved in the cytotoxic and antitumour effect of aplidine is under investigation at the moment.” for “PCR.”
# The human leukaemia cell line MOLT-4 was used for these experiments MOLT-4 cells were treated for 1 hour with 20 nM of aplidine. Total RNA was extracted at the end of treatment and 6 and 24 hours after recovery in drug-free medium.
# 5 μg of total RNA were retrotanscribed to cDNA in the presence of ^32P dATP. Equal amounts of radioactive probes were hybridised to Atlas Human Cancer Microarrays (Clontech). After washing, filter were exposed and the results analysed using the Atlas Image software. Only a gene expression difference greater than 2 fold between treated and untreated cells were taken into account. RT-PCR and northern analysis have been performed to confirm the changes in gene expression found with the microarrays.
# VEGF [1] = assay: VEGF secretion from MOLT-4 cells (ELISA); type: cell-based, human
# Method: Cells were treated for 1 h with 20 nM aplidine. VEGF secreted in the medium was measured by ELISA at the end of treatment and after 6 and 24 hours incubation in drug-free medium.
# VEGF [2] = assay: VEGF secretion from IGROV-1; type: cell-based, human
# advanced solid tumours = assay: Phase I, 24 h infusion weekly x3 q4wk: antitumour activity; type: in vivo, human
# Method: In this study 16 patients were treated. patients characteristics: median age 55 years, median PS 1, male/female 11/5, tumour types being as follows: Head and neck 5, kidney 2, colon 3, rectum 2, sarcoma 1 and melanoma 3, all pre-treated with chemotherapy (median 2 lines).
# Aplidine was administered as a 24 h infusion at the following dose levels (Dls): 133 (3 pts), 266 (3 pts), 532 (3 pts), 1000 (3 pts), 2000 (3 pts) and 3000 (1 pt) mcg/m^2/wk×3 every 28 days.
# To date, 25 pts (median age 58 yrs, median ECOG 1) with advanced, previously treated solid tumours or lymphoma have been treated in this phase I study. Using a schedule of APL 24 h weekly×3 followed by 1 wk rest, the following dose levels have been tested: 133 (n-3 pts), 266 (3), 532 (3), 1000 (3), 2000 (3), 4500 (3) and 3750 μg/m^2/wk (3). With 60 cycles (180 infusions) administered, all pts are evaluable for toxicity. The Maximum Tolerated Dose was 4500 μg/m^2/wk×3 with grade (G) 3 muscular toxicity (biopsy proven type II muscular atrophy). G4 CPK and G3 transaminitis the dose-limiting toxicities in 2 or 4 pts. […] All pts have been sampled for PK analysis by LC/MS/MS. […] As expected, neuromuscular toxicity is dose-limiting. The possible recommended dose of 3750 μg/m^2/wk×3 is being assessed.
# A phase I trial was performed using 24 hour infusion weekly×3 followed by 1 wk rest. 32 patients (median age 58 yrs, median ECOG 1) with advanced, previously treated solid tumours have been treated. They have received 64 courses (median/pt: 2 (1-6)) across 8 dose levels: 133 (3 pts), 266 (3 pts), 532 (3 pts), 1000 (3 pts), 2000 (3 pts), 3000 (3 pts), 4500 (4 pts) and 3750 mcg/m^2/wk (10 pts). 2 out of 3 evaluable patients had DLT at 4500 mcg/m^2/wk: grade (G) 4 reversible neuromuscular toxicity (biopsy prevent type II muscular atrophy) and G4 CK increase (1 pt), and transient G3 transaminitis (1 pt). Other toxicities included G 1-2 malaise (most patients treated at ≧3000 mcg/m^2/wk), muscle cramps, G 1-2 emesis (responsive to antiemetics) and injection site reaction (very common and concentration-dependent). All patients have been sampled for PK analysis by a LC/MS/MS method. Pharmacokinetics are linear and the profiles fit a 2 compartment open model. […] Maintained plasma levels >1 ng/ml (active in vitro) were obtained at doses ≧3000 mcg/m^2. […] Four additional patients had minor responses or stable disease for >4 months. […] The recommended dose for future trials, 3750 mcg/m^2/wk×3, administered through a central vein catheter, is feasible and associated with mild toxicity.
substance,measurement,setting,value
aplidine,"mRNA levels of VEGF, in words",VEGF mRNA,reduces the mRNA levels of VEGF
same,"expression of VEGF-RI/flt-1 gene, in words","FLT-1 (VEGF-R1); MOLT-4, 20 nM 1 h, at the end of treatment",decreased
same,"levels of flt-1, in words","FLT-1 (VEGF-R1); MOLT-4, 20 nM 1 h, by 6 and 24 hours",further decreased
same,quantitative change in FLT-1 expression,FLT-1 (VEGF-R1); 1 Hour,−1.5 fold
same,quantitative change in FLT-1 expression,FLT-1 (VEGF-R1); 6 Hours,−5.0 fold
same,quantitative change in FLT-1 expression,FLT-1 (VEGF-R1); 24 Hours,−3.4 fold
same,"expression of VEGF-R1 (flt-1), in words","FLT-1 (VEGF-R1); MOLT-4, RNA level by PCR, protein level by Western blotting",downregulated; also recorded: inhibits expression; also recorded: marked time-dependent reduction; also recorded: decrease in flt-1 mRNA
same,intracellular VEGF,VEGF [1],increased intracellular accumulation of VEGF
same,"VEGF secretion, in words",VEGF [1]; 1 h with 20 nM aplidine,strong reduction of VEGF secretion; also recorded: severely inhibit production; also recorded: Blocks VEGF Secretion
same,concentration at which block of VEGF secretion is already observable,VEGF [1]; concentration-dependent,5 nm
same,"secretion of VEGF, in words",VEGF [2],reduce the secretion of VEGF
same,"clinical response, pre-treated advanced melanoma","advanced solid tumours; DL 532 mcg/m^2/w, 1 patient",clinical improvement
same,"response, Patient #034, thyroid medullary carcinoma",advanced solid tumours; decrease in CEA marker,Clinical improvement and SD at lung lymphangitis
same,duration of minor responses or stable disease,advanced solid tumours; four additional patients,> 4 months
same,"response, Patient #008, non measurable metastatic melanoma",advanced solid tumours; highly pre-treated,clinical improvement and tumour shrinkage
same,"tumour shrinkage, Patient #032, renal carcinoma",advanced solid tumours; in vivo,20%
same,"duration of clinical improvement, advanced melanoma resistant to DTIC/interferon",advanced solid tumours; one patient,> 30 weeks
